For this experiment, the target named is human FXR (NR1H4) (Homo sapiens (Human), UniProt Q96RI1). Briefly: Human FXR (NR1H4) Assay (Gal4 promoter driven luciferase reporter, Indigo Bioscience kit).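 As to Efficacy (%): 100% equals the efficacy of CDCA; efficacy normalized to CDCA set as 100%.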 The class given is cell-based. The settings on record: for EC50: Human FXR (NR1H4) Assay, potency ranges; for Emax: read-out: Efficacy (%). In short, it runs like this: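 CHO reporter cells expressing human FXR with an FXR-responsive luciferase reporter, treated with compound doses at 0.2% DMSO. Incubation lasted 22 h at 37 °C before luciferase detection reagent was added. Luminescence was then read.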
Background: A reporter such as luciferase makes a cellular process visible.

What is called EC50 is the concentration at which the effect is half-maximal.

Chain of human FXR (NR1H4) (Q96RI1 whole entry, the tested form may be a part): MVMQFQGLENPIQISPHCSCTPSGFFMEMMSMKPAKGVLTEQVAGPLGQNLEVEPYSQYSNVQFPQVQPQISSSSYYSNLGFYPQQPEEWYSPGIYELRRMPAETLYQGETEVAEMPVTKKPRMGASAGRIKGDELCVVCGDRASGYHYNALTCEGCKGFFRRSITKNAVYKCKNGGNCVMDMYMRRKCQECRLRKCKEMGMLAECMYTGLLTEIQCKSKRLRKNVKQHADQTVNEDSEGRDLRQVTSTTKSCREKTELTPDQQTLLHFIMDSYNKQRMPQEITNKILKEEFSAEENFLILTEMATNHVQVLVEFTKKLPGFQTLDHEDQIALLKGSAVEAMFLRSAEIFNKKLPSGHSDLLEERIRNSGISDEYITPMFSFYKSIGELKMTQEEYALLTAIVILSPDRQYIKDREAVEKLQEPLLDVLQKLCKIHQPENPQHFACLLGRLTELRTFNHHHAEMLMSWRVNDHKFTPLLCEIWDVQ

Take `CC[C@H]1[C@@H](O)[C@@H]2[C@H](CC[C@]3(C)[C@@H]([C@H](C)COC(=O)NS(=O)(=O)c4ccc(-c5ccc(OC(F)(F)F)cc5)s4)CC[C@@H]23)[C@@]2(C)CC[C@@H](O)C[C@@H]12` [Example 26]: the EC50 lay within 100 to 1000 nM and the Emax was determined as 206%.
The matching figures for `CC[C@H]1[C@@H](O)[C@@H]2[C@H](CC[C@]3(C)[C@@H]([C@H](C)CCOC(=O)NC(C(C)C)C(C)C)CC[C@@H]23)[C@@]2(C)CC[C@@H](O)C[C@@H]12` [Example 176]: 1000 to 10000 nM and 368%.
As for `CC[C@H]1[C@@H](O)[C@@H]2[C@H](CC[C@]3(C)[C@@H]([C@H](C)CCOC(=O)Nc4ccc(F)cc4Cl)CC[C@@H]23)[C@@]2(C)CC[C@@H](O)C[C@@H]12` [Example 193], the EC50 is 1000 to 10000 nM and the Emax stood at 179%.
Regarding `CC[C@H]1[C@@H](O)[C@@H]2[C@H](CC[C@]3(C)[C@@H]([C@H](C)CCOC(=O)NCc4ccc(C(C)(C)C)cc4)CC[C@@H]23)[C@@]2(C)CC[C@@H](O)C[C@@H]12` [Example 189], the EC50 lay within 1000 to 10000 nM and the Emax turned out to be 215%.
With `CC[C@H]1[C@@H](O)[C@@H]2[C@H](CC[C@]3(C)[C@@H]([C@H](C)CCOC(=O)NC4CCS(=O)(=O)CC4)CC[C@@H]23)[C@@]2(C)CC[C@@H](O)C[C@@H]12` [Example 167], the EC50 fell in the range of 100 to 1000 nM and the Emax turned out to be 321%.
In the same order, the values of `CC[C@H]1[C@@H](O)[C@@H]2[C@H](CC[C@]3(C)[C@@H]([C@H](C)COC(=O)NS(=O)(=O)c4ccc(-c5ccc(C(F)(F)F)cc5)s4)CC[C@@H]23)[C@@]2(C)CC[C@@H](O)C[C@@H]12` [Example 27] are 100 to 1000 nM and 173%.
Turning to `CC[C@H]1[C@@H](O)[C@@H]2[C@H](CC[C@]3(C)[C@@H]([C@H](C)CCOC(=O)NS(C)(=O)=O)CC[C@@H]23)[C@@]2(C)CC[C@@H](O)C[C@@H]12` [Example 97], the concentration giving a half-maximal response (EC50) lay in the range of 100 to 1000 nM and the Emax is 245%.
In the case of `CC[C@H]1[C@@H](O)[C@@H]2[C@H](CC[C@]3(C)[C@@H]([C@H](C)CCCOC(=O)NS(=O)(=O)c4ccc(C)cc4)CC[C@@H]23)[C@@]2(C)CC[C@@H](O)C[C@@H]12` [Example 1], the 50% effective concentration (EC50) lay in the range of 100 to 1000 nM and the Emax turned out to be 422%.
Consider `CC[C@H]1[C@@H](O)[C@@H]2[C@H](CC[C@]3(C)[C@@H]([C@H](C)COC(=O)NCc4ccccc4)CC[C@@H]23)[C@@]2(C)CC[C@@H](O)C[C@@H]12` [Example 205], for which the concentration for a half-maximal effect (EC50) is 1000 to 10000 nM and the Emax was 5%.
For `CC[C@H]1[C@@H](O)[C@@H]2[C@H](CC[C@]3(C)[C@@H]([C@H](C)CCOC(=O)NS(=O)(=O)c4ccccc4C(C)(C)C)CC[C@@H]23)[C@@]2(C)CC[C@@H](O)C[C@@H]12` [Example 85], the concentration giving a half-maximal response (EC50) was less than 100 nM and the Emax was 240%.
The matching figures for `CC[C@H]1[C@@H](O)[C@@H]2[C@H](CC[C@]3(C)[C@@H]([C@H](C)COC(=O)NS(=O)(=O)c4ccc(-c5ccc(F)cc5)cc4)CC[C@@H]23)[C@@]2(C)CC[C@@H](O)C[C@@H]12` [Example 28]: less than 100 nM and 194%.
Regarding `CC[C@H]1[C@@H](O)[C@@H]2[C@H](CC[C@]3(C)[C@@H]([C@H](C)CCOC(=O)NS(=O)(=O)c4ccc5ccsc5c4)CC[C@@H]23)[C@@]2(C)CC[C@@H](O)C[C@@H]12` [Example 104-f], the EC50 was less than 100 nM and the Emax stood at 213%.
For the compound `CC[C@H]1[C@@H](O)[C@@H]2[C@H](CC[C@]3(C)[C@@H]([C@H](C)CCOC(=O)N(C)OC)CC[C@@H]23)[C@@]2(C)CC[C@@H](O)C[C@@H]12` [Example 164], the EC50 fell in the range of 100 to 1000 nM and the Emax was found to be 191%.

For the origin of these results see patent publication US10457703B2, “Bile acid derivatives as FXR/TGR5 agonists and methods of use thereof” (ENANTA PHARMACEUTICALS, INC., priority 2015, dated 2019).
